# In ChEMBL document CHEMBL6153079, “Discovery of noncovalent diaminopyrimidine-based Inhibitors for glioblastoma via a dual FAK/DNA targeting strategy” (Eur J Med Chem, 2025):
# The source made the active and inactive calls. The rule behind the calls is not given here.
# Legend:
# Focal adhesion kinase 1 [1] = biological target: T1, Focal adhesion kinase 1 (Homo sapiens, UniProt Q05397); test: Inhibition of FAK (unknown origin) at 10 nM relative to control
# Target sequence in this assay (Q05397 2-1052 limits assumed): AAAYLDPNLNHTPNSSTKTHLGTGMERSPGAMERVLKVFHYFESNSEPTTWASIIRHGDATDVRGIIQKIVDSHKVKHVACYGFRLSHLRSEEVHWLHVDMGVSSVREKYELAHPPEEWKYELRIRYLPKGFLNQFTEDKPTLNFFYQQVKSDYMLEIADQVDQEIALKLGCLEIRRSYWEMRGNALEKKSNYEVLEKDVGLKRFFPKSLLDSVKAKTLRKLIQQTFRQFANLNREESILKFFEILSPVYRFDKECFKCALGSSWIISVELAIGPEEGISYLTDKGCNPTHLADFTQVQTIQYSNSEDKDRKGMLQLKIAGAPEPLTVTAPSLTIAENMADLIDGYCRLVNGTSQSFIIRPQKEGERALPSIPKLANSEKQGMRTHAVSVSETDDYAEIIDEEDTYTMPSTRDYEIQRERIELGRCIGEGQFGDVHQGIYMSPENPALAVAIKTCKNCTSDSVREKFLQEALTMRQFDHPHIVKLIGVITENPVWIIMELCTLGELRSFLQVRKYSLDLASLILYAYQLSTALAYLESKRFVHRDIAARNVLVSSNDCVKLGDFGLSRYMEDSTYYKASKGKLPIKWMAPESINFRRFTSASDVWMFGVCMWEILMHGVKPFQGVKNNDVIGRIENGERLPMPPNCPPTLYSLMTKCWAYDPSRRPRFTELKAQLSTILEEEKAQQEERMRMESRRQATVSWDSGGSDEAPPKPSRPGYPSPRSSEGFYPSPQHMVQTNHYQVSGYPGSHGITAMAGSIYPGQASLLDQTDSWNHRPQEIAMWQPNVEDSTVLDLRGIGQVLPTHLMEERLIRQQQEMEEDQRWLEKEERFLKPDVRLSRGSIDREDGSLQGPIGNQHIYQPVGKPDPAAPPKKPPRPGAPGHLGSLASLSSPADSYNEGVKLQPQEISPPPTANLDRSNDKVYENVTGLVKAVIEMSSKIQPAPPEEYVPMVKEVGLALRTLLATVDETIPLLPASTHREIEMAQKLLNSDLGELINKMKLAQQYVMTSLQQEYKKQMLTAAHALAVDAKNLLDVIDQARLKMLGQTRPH
# Focal adhesion kinase 1 [2] = biological target: T1, Focal adhesion kinase 1; test: Inhibition of FAK (unknown origin) at 50 nM relative to control
# Target sequence in this assay (Q05397 2-1052 limits assumed): as above
# U-87 MG [3] = test: Antiproliferative activity against human U-87 MG assessed as cell viability incubated for 48 hrs by MTT assay; format: functional, cell-based, U-87MG ATCC
# U-251 = test: Antiproliferative activity against human U-251 assessed as cell viability incubated for 48 hrs by MTT assay; format: functional, cell-based; conditions: U-251, 48 h
# [4] = Distribution coefficient, logD of compound in n-Octanol/water at pH 7.4; format: physicochemical
# [5] = Selectivity ratio of IC50 for cytotoxicity against human LO2 assessed as cell viability to IC50 for antiproliferative activity against human U-87 MG assessed as cell viability; format: toxicity; conditions: LO2 cells versus U-87 MG cells, read-out: Ratio IC50
# Focal adhesion kinase 1 [6] = biological target: T1, Focal adhesion kinase 1; test: Inhibition of FAK (unknown origin) preincubated for 10 mins followed by ATP and substrate addition and measured after 50 mins by HTRF analysis
# Target sequence in this assay (Q05397 whole entry): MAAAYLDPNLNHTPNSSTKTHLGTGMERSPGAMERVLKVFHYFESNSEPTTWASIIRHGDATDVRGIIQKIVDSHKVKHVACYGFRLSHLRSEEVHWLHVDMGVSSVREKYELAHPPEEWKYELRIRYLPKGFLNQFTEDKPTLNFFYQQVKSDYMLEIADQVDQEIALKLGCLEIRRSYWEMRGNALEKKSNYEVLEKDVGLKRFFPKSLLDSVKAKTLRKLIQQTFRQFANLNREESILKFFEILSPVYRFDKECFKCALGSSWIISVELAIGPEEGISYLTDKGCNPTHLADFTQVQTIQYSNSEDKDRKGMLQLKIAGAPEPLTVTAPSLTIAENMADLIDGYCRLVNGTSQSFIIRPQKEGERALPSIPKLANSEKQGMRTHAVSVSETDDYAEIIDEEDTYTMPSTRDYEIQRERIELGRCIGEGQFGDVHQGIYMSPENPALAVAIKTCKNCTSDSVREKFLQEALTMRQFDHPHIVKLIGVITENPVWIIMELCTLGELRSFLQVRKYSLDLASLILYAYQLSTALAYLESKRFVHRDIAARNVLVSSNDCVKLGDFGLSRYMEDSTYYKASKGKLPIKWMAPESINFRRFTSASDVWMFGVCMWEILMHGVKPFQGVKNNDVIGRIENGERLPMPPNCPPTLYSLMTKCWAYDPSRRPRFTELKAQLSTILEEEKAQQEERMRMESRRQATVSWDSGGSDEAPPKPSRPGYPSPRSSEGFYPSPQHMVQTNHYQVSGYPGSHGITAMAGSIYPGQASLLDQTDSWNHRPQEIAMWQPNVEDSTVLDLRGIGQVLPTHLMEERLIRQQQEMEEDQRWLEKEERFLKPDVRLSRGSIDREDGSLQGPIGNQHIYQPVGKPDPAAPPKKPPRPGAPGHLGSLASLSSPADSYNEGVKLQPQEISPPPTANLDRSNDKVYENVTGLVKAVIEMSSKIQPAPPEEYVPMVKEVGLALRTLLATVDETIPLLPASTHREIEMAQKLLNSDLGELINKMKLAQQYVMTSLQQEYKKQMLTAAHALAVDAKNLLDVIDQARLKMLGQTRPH
# [7] = Effective permeability of compound at pH 7.4 incubated for 16 hrs by LCMS analysis; format: ADME; conditions: pH 7.4, 16 h
# [8] = Cytotoxicity against human 2BS assessed as cell viability incubated for 48 hrs by MTT assay; format: toxicity, cell-based; conditions: 2BS cells
# [9] = Selectivity ratio of IC50 for cytotoxicity against human LO2 assessed as cell viability to IC50 for antiproliferative activity against human U-251 assessed as cell viability; format: toxicity; conditions: LO2 cells versus U-251 cells, read-out: Ratio IC50
# [10] = Cytotoxicity against human LO2 assessed as cell viability incubated for 48 hrs by MTT assay; format: toxicity, cell-based, L02; conditions: LO2 cells
# U-87 MG [11] = test: Induction of DNA damage in human U-87 MG cells assessed as comet tail moment at 0.1 to 2 uM incubated for 2.5 to 3 hrs by comet assay; format: functional; conditions: U-87MG ATCC, time 2.5-3 hrs
smiles,measurement,setting,value
CNC(=O)c1ccccc1Nc1nc(Nc2ccc(N3CCN(CCOC(=O)CCCc4ccc(N(CCCl)CCCl)cc4)CC3)cc2)ncc1Br,inhibition,Focal adhesion kinase 1 [1],68.4%
same,inhibition,Focal adhesion kinase 1 [2],94.2%
same,IC50,U-87 MG [3],30 nM
same,IC50,U-251,81 nM
CNC(=O)c1ccccc1Nc1nc(Nc2ccc(N3CCN(C(=O)CCCc4ccc(N(CCCl)CCCl)cc4)CC3)cc2OC)ncc1Cl,inhibition,Focal adhesion kinase 1 [1],32.2%
same,inhibition,Focal adhesion kinase 1 [2],67.3%
same,IC50,U-87 MG [3],18000 nM
same,IC50,U-251,> 50000 nM
CNC(=O)c1ccccc1Nc1nc(Nc2ccc(N3CCN(CCOC(=O)c4ccc(N(CCCl)CCCl)cc4)CC3)cc2)ncc1Cl,inhibition,Focal adhesion kinase 1 [1],51.9%
same,inhibition,Focal adhesion kinase 1 [2],78.5%
same,IC50,U-87 MG [3],390 nM
same,IC50,U-251,1210 nM
CNC(=O)c1ccccc1Nc1nc(Nc2ccc(N3CCN(C(=O)c4ccc(N(CCCl)CCCl)cc4)CC3)cc2OC)ncc1Cl,inhibition,Focal adhesion kinase 1 [1],26.2%
same,inhibition,Focal adhesion kinase 1 [2],64.6%
same,IC50,U-87 MG [3],> 50000 nM
same,IC50,U-251,> 50000 nM
CNC(=O)c1ccccc1Nc1nc(Nc2ccc(N3CCN(CCOC(=O)c4ccc(N(CCCl)CCCl)cc4)CC3)cc2)ncc1C(F)(F)F,inhibition,Focal adhesion kinase 1 [1],81.3%
same,logD,[4],5.34
same,selectivity ratio,[5],> 40
same,IC50,Focal adhesion kinase 1 [6],4.28 nM
same,Peff,[7],0.001 10^-6 cm/s
same,IC50 at 48 h,[8],24100 nM
same,inhibition,Focal adhesion kinase 1 [2],96.4%
same,IC50,U-87 MG [3],27 nM
same,IC50,U-251,31 nM
same,selectivity ratio,[9],> 40
same,IC50 at 48 h,[10],1210 nM
CNC(=O)c1ccccc1Nc1nc(Nc2ccc(N3CCN(CCOC(=O)CCCc4ccc(N(CCCl)CCCl)cc4)CC3)cc2)ncc1[N+](=O)[O-],inhibition,Focal adhesion kinase 1 [1],36.5%
same,inhibition,Focal adhesion kinase 1 [2],75.4%
same,IC50,U-87 MG [3],605 nM
same,IC50,U-251,849 nM
CNC(=O)c1ccccc1Nc1nc(Nc2ccc(N3CCN(C)CC3)cc2)ncc1Cl,inhibition,Focal adhesion kinase 1 [1],76.4%
same,logD,[4],3.1
same,selectivity ratio,[5],> 40
same,Activity,U-87 MG [11],inactive
same,IC50,Focal adhesion kinase 1 [6],3.2 nM
same,IC50 at 48 h,[8],11600 nM
same,inhibition,Focal adhesion kinase 1 [2],80.2%
same,IC50,U-87 MG [3],17 nM
same,IC50,U-251,64 nM
same,selectivity ratio,[9],> 40
same,IC50 at 48 h,[10],801 nM
CNC(=O)c1ccccc1Nc1nc(Nc2ccc(N3CCNCC3)cc2)ncc1Cl,inhibition,Focal adhesion kinase 1 [1],67.9%
same,inhibition,Focal adhesion kinase 1 [2],78.6%
same,IC50,U-87 MG [3],36 nM
same,IC50,U-251,79 nM
CNC(=O)c1ccccc1Nc1nc(Nc2ccc(N3CCN(CCOC(=O)CCCc4ccc(N(CCCl)CCCl)cc4)CC3)cc2)ncc1Cl,inhibition,Focal adhesion kinase 1 [1],79.8%
same,inhibition,Focal adhesion kinase 1 [2],94.5%
same,IC50,U-87 MG [3],95 nM
same,IC50,U-251,485 nM
CNC(=O)c1ccccc1Nc1nc(Nc2ccc(N3CCN(CCOC(=O)CCCc4ccc(N(CCCl)CCCl)cc4)CC3)cc2)ncc1C,inhibition,Focal adhesion kinase 1 [1],65.8%
same,inhibition,Focal adhesion kinase 1 [2],97.5%
same,IC50,U-87 MG [3],42 nM
same,IC50,U-251,168 nM
O=C(O)CCCc1ccc(N(CCCl)CCCl)cc1 [CHLORAMBUCIL],inhibition,Focal adhesion kinase 1 [1],2.77%
same,inhibition,Focal adhesion kinase 1 [2],8.54%
same,IC50,U-87 MG [3],> 50000 nM
same,IC50,U-251,> 50000 nM
CNC(=O)c1ccccc1Nc1nc(Nc2ccc(N3CCN(C(=O)CCCc4ccc(N(CCCl)CCCl)cc4)CC3)cc2)ncc1Cl,inhibition,Focal adhesion kinase 1 [1],55.4%
same,inhibition,Focal adhesion kinase 1 [2],74.2%
same,IC50,U-87 MG [3],990 nM
same,IC50,U-251,3700 nM
CNC(=O)c1ccccc1Nc1nc(Nc2ccc(C3CCN(C(=O)CCCc4ccc(N(CCCl)CCCl)cc4)CC3)cc2)ncc1Cl,inhibition,Focal adhesion kinase 1 [1],56.4%
same,inhibition,Focal adhesion kinase 1 [2],67.5%
same,IC50,U-87 MG [3],1400 nM
same,IC50,U-251,18200 nM
CNC(=O)c1ccccc1Nc1nc(Nc2ccc(C3CCN(C(=O)c4ccc(N(CCCl)CCCl)cc4)CC3)cc2)ncc1Cl,inhibition,Focal adhesion kinase 1 [1],34%
same,inhibition,Focal adhesion kinase 1 [2],58.6%
same,IC50,U-87 MG [3],39600 nM
same,IC50,U-251,> 50000 nM
CNC(=O)c1ccccc1Nc1nc(Nc2ccc(N3CCN(CCO)CC3)cc2)ncc1Cl,inhibition,Focal adhesion kinase 1 [1],67.7%
same,inhibition,Focal adhesion kinase 1 [2],77.9%
same,IC50,U-87 MG [3],62 nM
same,IC50,U-251,194 nM
CNC(=O)c1ccccc1Nc1nc(Nc2ccc(N3CCN(C(=O)c4ccc(N(CCCl)CCCl)cc4)CC3)cc2)ncc1Cl,inhibition,Focal adhesion kinase 1 [1],55.8%
same,inhibition,Focal adhesion kinase 1 [2],77.5%
same,IC50,U-87 MG [3],1760 nM
same,IC50,U-251,6260 nM
